Results: publication PMC8172861, “Structural and phylogenetic analyses of resistance to next-generation aminoglycosides conferred by AAC(2′) enzymes” (Scientific Reports, 2021)

Target: T1, AAC(2′)-Ia (Providencia stuartii, UniProt Q52424)
T1 construct: AAC(2′)-Ia, N-terminal HIS-tag removed by thrombin
Assay: crystal structure ([…] Å) and competitive inhibition assay
Type: biochemical

T1 sequence (Q52424 whole entry): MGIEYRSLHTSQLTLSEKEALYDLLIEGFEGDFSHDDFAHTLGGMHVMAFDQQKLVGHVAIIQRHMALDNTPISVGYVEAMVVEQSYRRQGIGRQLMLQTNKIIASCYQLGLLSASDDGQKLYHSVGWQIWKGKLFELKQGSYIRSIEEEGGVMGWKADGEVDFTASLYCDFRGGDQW

In the case of NCC[C@H](O)C(=O)N[C@@H]1C[C@H](N)[C@@H](O[C@H]2O[C@H](CN)[C@@H](O)[C@H](O)[C@H]2O)[C@H](O)[C@H]1O[C@H]1O[C@H](CO)[C@@H](O)[C@H](N)[C@H]1O [amikacin], the Ki is reported as 87 ± 10 µM.
